Results from US9789072B2, “Therapeutic agents for use in the propylaxis and/or treatment of hyperkinetic movement disorders” (SOM INNOVATION BIOTECH, S.L., priority 2013, dated 2017).
Read-outs that look alike come from different tables or passages of the source.

Molecular target: T1, VMAT2 (Rattus norvegicus, UniProt Q01827)
T1 construct: the VMAT2 present in isolated cerebral cortical vesicles; from tissue; host or cells: rat cerebral cortex, synaptic vesicles purified by differential centrifugation
Test: VMAT2 functional assay ([3H]-dopamine uptake into isolated vesicles)
Type: biochemical
Conditions: rat cortical vesicles, [3H]-dopamine 30 nM, 30 min pre-incubation, 15 min uptake, room temperature
Description: VMAT2 Functional Assay determines the interaction between the compounds of the present invention and the VMAT2 present in isolated cerebral cortical vesicles.
Transporter Source: Rat cortical vesicles
Buffers: 100 mM potassium tartrate, 1.7 mM ascorbic acid, 0.05 mM EGTA, 0.1 mM EDTA, 2 mM Magnesium-ATP and 25 mM HEPES.
RadioLigand: • Monoamine: [3H]-Dopamine • Final ligand concentration: 30 nM
Vmax (transport rate): 1800 fmol/mg tissue/min
Positive reference-control: • Reserpine • Concentration: 10 μM
(1) Rat cortical vesicles were purified using differential centrifugation, and the vesicles obtained were diluted in the assay buffer and pre-incubated with the positive-reference-control, the comparative sample or a compound of the invention for 30 minutes at room temperature.
(2) Uptake begins with the addition of [3H]-dopamine and the mixture is allowed to incubate for 15 minutes at room temperature.
(3) After that time, the reaction was stopped by vacuum filtration, and the amount of radioactivity of the radiolabeled [3H]-dopamine trapped onto the filters was determined.
(4) The radioactivity of the [3H]-dopamine trapped was determined using liquid scintillation spectrophotometry (Beckman and Perkin Elmer). The amount of radioactivity obtained with the comparative sample or a compound of the invention was compared with the amount of radioactivity obtained with the positive-reference control (reserpine).
The IC50 value is converted to an absolute inhibition constant Ki using the Cheng-Prusoff equation. Two separate independent experiments were performed.

[1] = Experiment 1, read-out: IC50 (nM) Experiment 1

T1 sequence (Q01827 whole entry): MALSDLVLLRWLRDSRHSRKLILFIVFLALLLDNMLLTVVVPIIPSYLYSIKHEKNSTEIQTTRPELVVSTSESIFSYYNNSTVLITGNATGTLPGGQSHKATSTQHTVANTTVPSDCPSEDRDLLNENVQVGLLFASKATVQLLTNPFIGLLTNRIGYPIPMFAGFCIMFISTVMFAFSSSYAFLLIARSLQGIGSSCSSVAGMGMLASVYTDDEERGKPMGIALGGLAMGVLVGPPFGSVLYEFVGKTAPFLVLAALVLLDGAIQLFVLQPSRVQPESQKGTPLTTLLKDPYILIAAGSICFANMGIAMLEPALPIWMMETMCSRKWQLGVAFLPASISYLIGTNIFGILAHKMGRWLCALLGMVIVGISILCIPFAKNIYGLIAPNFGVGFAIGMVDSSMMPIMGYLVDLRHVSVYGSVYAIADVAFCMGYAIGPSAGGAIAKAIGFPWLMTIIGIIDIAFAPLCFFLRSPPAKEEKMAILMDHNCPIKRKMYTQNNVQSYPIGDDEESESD

Compound	IC50 [1]	IC50 (Experiment 2, read-out: IC50 (nM) Experiment 2)
COc1ccc(CCNCC(O)COc2cccc(C)c2)cc1OC (racemic) [Bevantolol (IA), (RS)-[2-(3,4-dimethoxyphenyl)ethyl][2-hydroxy-3-(3-methylphenoxy)propyl]amine]	42.8 nM	63 nM
CC(COc1ccccc1)N(CCCl)Cc1ccccc1 (racemic) [Phenoxybenzamine (IC), (RS)—N-benzil-N-(2-chloroetyl)-1-phenoxy-propan-2-amine]	58.1 nM	
C[C@@H](NCCCc1cccc(C(F)(F)F)c1)c1cccc2ccccc12 [Cinacalcet (IB)]	44.6 nM	
